The text below walks through data of publication PMC11642994, “AGC family kinase of Entamoeba histolytica: Decoding the members biochemically” (PLOS Pathogens, 2024).

What all share (assay type): binding
In one assay the target is T1, KDD2 (Entamoeba histolytica, UniProt C4M3C2, D242A/K147A).
T1 sequence (C4M3C2 1-434 K147A/D242A): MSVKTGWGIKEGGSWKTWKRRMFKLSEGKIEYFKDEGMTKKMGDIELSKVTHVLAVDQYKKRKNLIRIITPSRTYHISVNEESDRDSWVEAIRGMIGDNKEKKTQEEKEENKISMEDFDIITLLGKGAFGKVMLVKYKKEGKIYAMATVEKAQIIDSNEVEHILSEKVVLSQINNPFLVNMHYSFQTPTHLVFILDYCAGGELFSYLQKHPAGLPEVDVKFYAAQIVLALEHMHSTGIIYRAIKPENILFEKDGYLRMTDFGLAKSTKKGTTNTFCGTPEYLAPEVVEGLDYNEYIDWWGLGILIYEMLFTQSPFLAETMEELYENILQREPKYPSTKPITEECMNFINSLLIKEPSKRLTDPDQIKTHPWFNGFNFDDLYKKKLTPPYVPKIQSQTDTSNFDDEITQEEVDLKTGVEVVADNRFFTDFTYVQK
In words: Microscale Thermophoresis (MST), kinase-dead EhAGCK2 (KDD2). The note with it: KDD2 (K147A and D242A), Tris-Cl pH 8, 25°C, peptide 500 μM to 153 nM, n = 6. On the procedure:
(§1) Microscale Thermophoresis (MST) was performed in the presence of full-length and kinase-dead EhAGCK1 and EhAGCK2 proteins, along with HsGSK3, EhRhoGEF, and EhCoactosin peptide substrates. Proteins were labelled using a His-tag labelling kit, RED-tris-NTA 2nd Generation (Nano Temper Technologies, San Francisco, CA, USA). A brief labelling reaction was performed in a buffer containing (50 mM Tris-Cl pH 8, 150 mM NaCl, 1 mM β-ME and 5% glycerol) with a protein concentration of 20 nM and a molar dye: protein ratio of approximately 3:1. The mixture was kept at room temperature for 30 min, followed by centrifugation at 15000 g for 10 min at 4°C. A series of 16 1:1 dilutions were prepared using the same buffer, resulting in peptide concentrations ranging from 500 μM to […]. Following a 10 min incubation, the samples were loaded into standard monolith NT.115 capillaries from Nano Temper Technologies. […] Data from three independently pipetted measurements were analysed using MO. […]
(§2) The kinase assay data presented here are the mean ± standard error (SE) of n≥3 of three independent experiments. The Km and Vmax were determined from a direct, nonlinear fit of [V] versus [S] plots using the Michaelis-Menten equation: V=Vmax[S]/Km+[S] using the GraphPad Prism 9.0 software package (GraphPad Software Inc., CA, USA). […]
(In MST a laser heats a spot of the sample, and binding alters the fluorescence response.)

The target in another assay is EhAGCK1 WT (Entamoeba histolytica, UniProt C4M2W0). Put plainly: Microscale Thermophoresis (MST), EhAGCK1 WT. The note with it: MST, EhAGCK1. On the procedure:
as §1, §2

The target of the next assay is T2, KDD1 (Entamoeba histolytica, UniProt C4M2W0, D241A/K147A).
T2 sequence (C4M2W0 1-433 K147A/D241A): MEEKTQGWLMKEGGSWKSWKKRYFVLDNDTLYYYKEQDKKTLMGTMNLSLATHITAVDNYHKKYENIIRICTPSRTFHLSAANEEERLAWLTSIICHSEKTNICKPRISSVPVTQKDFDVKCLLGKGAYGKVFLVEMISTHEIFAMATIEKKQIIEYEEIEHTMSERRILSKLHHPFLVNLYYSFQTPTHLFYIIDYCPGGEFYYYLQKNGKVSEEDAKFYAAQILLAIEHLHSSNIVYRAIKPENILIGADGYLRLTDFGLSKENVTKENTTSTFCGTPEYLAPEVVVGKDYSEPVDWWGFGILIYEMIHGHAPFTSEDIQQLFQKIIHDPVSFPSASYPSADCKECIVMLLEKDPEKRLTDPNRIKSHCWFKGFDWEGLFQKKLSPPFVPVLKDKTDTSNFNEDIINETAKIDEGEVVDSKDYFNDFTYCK
In words: Microscale Thermophoresis (MST), kinase-dead EhAGCK1 (KDD1). The note with it: KDD1 (K147A and D241A), Tris-Cl pH 8, 25°C, peptide 500 μM to 153 nM, n = 6. The method, then: as §1, §2

No end group written: not given here.

As for KAGGADYSFNTTSN [Coactosin], the affinity at KDD2, expressed as Kd, was 11.9 µM.

Regarding SSPSSVPAAQSTTPVNVPK [RhoGEF], at EhAGCK1 WT, the “KD range in words” value was “within the nanomolar range”. Moreover, on KDD1, the Kd is 11.9 µM.

For orientation: Kd means the free concentration of one partner at which half of the binding sites on the other are occupied at equilibrium, for simple one-to-one binding. Higher therefore signals a looser complex.
